From US11173133B2, “Zeaxanthin formulations with additional ocular-active nutrients, for protecting eye health and treating eye disorders” (ZeaVision LLC, priority 2003, dated 2021)
Like-named read-outs stand apart in the source and are kept apart here.

Legend:
[1] = naturally-occurring dextrorotatory stereoisomer; cited from earlier work
[2] = tested on: wet macular degeneration; experiment: laser treatment using verteporfin in a patient with wet macular degeneration taking zeaxanthin; type: in vivo, human; details: one patient, daily zeaxanthin capsules before and after treatment
Description: As another example of the uncertainties and doubts that surround zeaxanthin among skilled physicians who treat eye diseases, the Inventor has personal knowledge of a patient who has the “wet” (or “exudative”) form of macular degeneration. This disease is characterized by aggressive growth of capillaries in and around certain layers of the retina, and it leads to rapid and devastating loss of vision. The best known treatment for wet AMD is called laser photocoagulation, or photodynamic therapy. It uses a drug called verteporfin, which is activated by a laser that is shone directly into the eyes of patients who have taken the drug. In October of 2003, a ZeaVision customer (a person) who was taking zeaxanthin capsules on a daily basis was scheduled to have a laser treatment using verteporfin, at the Wilmer Eye Institute in Baltimore, which is affiliated with the Johns Hopkins School of Medicine. This patient told their treating physician, who is one of the top experts in the world on treating macular degeneration, that they were taking zeaxanthin capsules on a daily basis. […] The results of that treatment, as measured up until the date this is being written, have been outstanding, and have been much better than was expected by the treating physician. […]

[3] = rats, high-dosage tests; Roche Vitamins 75-day Premarket Notification, FDA number 95S-0316; cited from earlier work
[4] = tested on: sunburn; experiment: sunburn after controlled high-intensity UV exposure of small skin areas in human volunteers; type: in vivo; details: 50 to 80 mg/day; small areas of skin exposed to medical-grade UV lamp
Description: (§1) As mentioned above, the categories of pharmaceutical preparations and dietary (nutritional) supplements overlap, and there is no specific upper limit for dosages that would cause a dietary (nutritional) supplement to be reclassified as a pharmaceutical preparation. Safety data that was gathered on zeaxanthin, using high-dosage tests involving rats, indicated a “no adverse effect limit” (NOEL) level of at least 1200 mg/day. […] Accordingly, people who want tans, or who are planning to go on a vacation or other trip that will involve exposure to abnormally high levels of sunlight, may take large quantities of zeaxanthin (up to or even exceeding 100 mg/day), to help them avoid sunburn and obtain a deeper tanned color on their skin. Such use, even at very high quantities, would be regarded as taking a dietary supplement rather than a pharmaceutical, and such dosages would still remain far below the NOAEL levels that were determined by animal tests.

[5] = small-scale tests of high-dose zeaxanthin in human volunteers (safety, skin tone); type: in vivo; details: dosages of 50 to 80 mg/day
Description: as §1

[6] = chemical / lab tests, cited from earlier work
[7] = tested on: macular degeneration; details: oral dosages; Newsome et al 1988 and others; cited from earlier work
[8] = tested on: macular degeneration; details: cited from earlier work

## O=C(O)CCCC[C@@H]1CCSS1 (racemic) [lipoic acid]
[1]
  anti-oxidant activity versus S (levorotatory) isomers: better anti-oxidant activity

## CC1=C(/C=C/C(C)=C/C=C/C(C)=C/C=C/C=C(C)/C=C/C=C(C)/C=C/C2=C(C)C[C@@H](O)CC2(C)C)C(C)(C)C[C@H](O)C1 [zeaxanthin]
[2]
  results of laser-verteporfin treatment: outstanding
[3]
  "no adverse effect limit" (NOEL) level: at least 1200 mg/day
[4]
  risk and severity of sunburn: effective in reducing a person's risk and severity of sunburn
[5]
  safety in human volunteers: entirely safe
[6]
  potency in absorbing and quenching oxygen free radicals (anti-oxidant), versus lutein: more potent and effective than lutein
[6]; listed as Zeaxanthin
  potency in absorbing and quenching oxygen free radicals (anti-oxidant), versus lutein: better and more potent anti-oxidant than lutein

## [Zn] [zinc]
[7]
  results of oral zinc in macular degeneration and other ocular problems: good, although not especially strong
[8]; AREDS-1, high dosages (zinc 80 mg/day), some but not all patient categories
  level of protection against macular degeneration: low and weak level of protection
[8]; compared with the combination of vitamins A, C, and E
  benefits of zinc in the AREDS-1 trial: strong enough to roughly match the benefits provided by a combination of vitamins A, C, and E
